Data set [1] concerns Trichophyton interdigitale 445. The data set can be described thus: Antifungal microdilution broth method, T. interdigitale. The data set is classed as cell-based. In outline: (§1)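 MICs were scored by eye in duplicate runs, accepted when the two differed by no more than one twofold step. Medium was RPMI-1640 (L-glutamine, 2% glucose) buffered with MOPS at pH 7.0, with DMSO-dissolved compounds serially halved per modified EUCAST protocol.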
(In general: Dilution methods test growth across graded concentrations, often in twofold steps.)

Data set [2] has as its system Mycobacterium tuberculosis H37Rv (331/88). Description: Antimycobacterial micromethod in Šula's medium, M. tuberculosis. It is filed as cell-based.
In data set [3] the test system is Klebsiella pneumoniae D 11750/08. The data set can be described thus: Antibacterial microdilution broth method, K. pneumoniae. Particulars: K. pneumoniae D 11750/08; for MIC KP 24 h: 24 h incubation; for MIC KP 48 h: 48 h incubation.
Another data set deals with eight fungal strains. The data set can be described thus: Antifungal activity. It is filed as cell-based. Conditions: statement over the fungal panel; time not stated. Summed up: as §1
Data set [4] has as its system Candida albicans ATCC 44859. Description: Antifungal microdilution broth method, C. albicans. The data set is classed as cell-based. Summed up: as §1
Data set [5] relates to Staphylococcus epidermidis H 6966/08. The data set can be described thus: Antibacterial microdilution broth method, S. epidermidis. The data set is classed as cell-based. Particulars: Staphylococcus epidermidis, H6966/08.
Data set [6] deals with four Gram-positive and four Gram-negative strains. Description: Antibacterial activity. The data set is classed as cell-based. Particulars: time not stated; read-out: MIC, S. epidermidis (1e MRSA, too).
[7] abbreviates: 336 h, 14 days incubation at 37 °C, read-out: MIC Mtb. 331/88 14 d.
[8] abbreviates: 504 h, 21 days incubation at 37 °C, read-out: MIC Mtb. 331/88 21 d.
The mark [9] stands for this setting: ATCC44859, 24 h, read-out: MIC CA 24 h.
The mark [10] stands for this setting: ATCC44859, 48 h, read-out: MIC CA 48 h.
[11] abbreviates: S. epidermidis, 24 h incubation, read-out: MIC SE 24 h.
Where [12] appears, read: S. epidermidis, 48 h incubation, read-out: MIC SE 48 h.
Setting [13] is: time not stated, read-out: MIC, S. epidermidis.

Molecules are shown by their SMILES. ≈ marks a conversion by molar mass, not a printed value. Like-named read-outs stand apart in the source and are kept apart here. Some results are limits rather than exact numbers.

The values that follow come from PMC7023430, “4-Aminobenzoic Acid Derivatives: Converting Folate Precursor to Antimicrobial and Cytotoxic Agents” (Biomolecules, 2019).

Take `O=C(O)c1ccc(N=Cc2ccc(Cl)cc2O)cc1` [1l, 4-[(4-Chloro-2-hydroxybenzylidene)amino]benzoic acid]: the MIC in data set [1] (72 h, read-out: MIC TI 72 h) was 500 µM (≈ 138 µg/mL); in data set [1] (120 h, read-out: MIC TI 120 h), over 500 µM; in data set [2] (setting [7]), 250 µM (≈ 68.9 µg/mL); in data set [2] (setting [8]), 500 µM (≈ 138 µg/mL); in the data set on eight fungal strains it was at least 250 µM; in data set [4] (setting [9]) it was 250 µM (≈ 68.9 µg/mL). Besides, the MIC in data set [4] (setting [10]), in data set [5] (setting [11]) and in data set [5] (setting [12]) was over 500 µM throughout. Further, in data set [3], the “MIC KP 24 h” value is on record as over 500 µM. The “MIC KP 48 h” value in data set [3] was over 500 µM.
Regarding `CC(C)(C)c1ccc(O)c(C=Nc2ccc(C(=O)O)cc2)c1` [1j, 4-{[5-(Tert-butyl)-2-hydroxybenzylidene]amino}benzoic acid], the MIC in data set [1] (72 h, read-out: MIC TI 72 h) is over 500 µM; in data set [1] (120 h, read-out: MIC TI 120 h), over 500 µM; in data set [2] (setting [7]) it was 250 µM (≈ 74.3 µg/mL); in data set [2] (setting [8]) it was 250 µM (≈ 74.3 µg/mL); in data set [4] (setting [9]), over 500 µM; in data set [4] (setting [10]), over 500 µM. Further, the MIC in data set [5] (setting [11]) and in data set [5] (setting [12]) was over 500 µM in each case. Further, the “MIC KP 24 h” value in data set [3] is reported as over 500 µM. Besides, the “MIC KP 48 h” value in data set [3] is on record as over 500 µM. In addition, the “MIC, antifungal activity” value with eight fungal strains is on record as “not translated into any antifungal action”.
As to `O=C(O)c1ccc(N=Cc2cc(I)ccc2O)cc1` [1e, 4-[(2-Hydroxy-5-iodobenzylidene)amino]benzoic acid], the MIC is at least 62.5 µM in data set [6]; 31.2 µM (≈ 11.5 µg/mL) in data set [1] (72 h, read-out: MIC TI 72 h); 31.2 µM (≈ 11.5 µg/mL) in data set [1] (120 h, read-out: MIC TI 120 h); 250 µM (≈ 91.8 µg/mL) in data set [2] (setting [7]); 250 µM (≈ 91.8 µg/mL) in data set [2] (setting [8]); at least 31.2 µM against eight fungal strains. Moreover, the MIC in data set [4] (setting [9]), in data set [4] (setting [10]), in data set [5] (setting [11]) and in data set [5] (setting [12]) was 62.5 µM (≈ 22.9 µg/mL) each time. Moreover, the “MIC KP 24 h” value in data set [3] is reported as over 250 µM. The “MIC KP 48 h” value in data set [3] was over 250 µM.
`O=C(O)c1ccc(N=Cc2cc(Cl)ccc2O)cc1` [1c, 4-[(5-Chloro-2-hydroxybenzylidene)amino]benzoic acid]: the MIC was at least 62.5 µM in data set [6]; 125 µM (≈ 34.5 µg/mL) in data set [1] (72 h, read-out: MIC TI 72 h); 125 µM (≈ 34.5 µg/mL) in data set [1] (120 h, read-out: MIC TI 120 h); 250 µM (≈ 68.9 µg/mL) in data set [2] (setting [7]); 500 µM (≈ 138 µg/mL) in data set [2] (setting [8]); over 125 µM in data set [4] (setting [9]). Further, the MIC in data set [4] (setting [10]) was over 125 µM; in data set [5] (setting [11]) it was 62.5 µM (≈ 17.2 µg/mL); in data set [5] (setting [12]), 62.5 µM (≈ 17.2 µg/mL). The “MIC KP 24 h” value in data set [3] was over 500 µM. Besides, the “MIC KP 48 h” value in data set [3] was over 500 µM.
For `O=C(O)c1ccc(N=Cc2cc(I)cc(I)c2O)cc1` [1q, 4-[(2-Hydroxy-3,5-diiodobenzylidene)amino]benzoic acid], the MIC in data set [1] (72 h, read-out: MIC TI 72 h) was 7.81 µM (≈ 3.85 µg/mL); in data set [1] (120 h, read-out: MIC TI 120 h) it was 7.81 µM (≈ 3.85 µg/mL); in data set [2] (setting [7]) it was 250 µM (≈ 123 µg/mL); in data set [2] (setting [8]) it was 250 µM (≈ 123 µg/mL); in data set [4] (setting [9]) it was 7.81 µM (≈ 3.85 µg/mL); in data set [4] (setting [10]) it was 7.81 µM (≈ 3.85 µg/mL). In addition, the MIC in data set [5] (setting [11]) and in data set [5] (setting [12]) was 62.5 µM (≈ 30.8 µg/mL) throughout. For the same molecule, the “MIC KP 24 h” value in data set [3] was determined as 500 µM (≈ 247 µg/mL). Also, in data set [3], the “MIC KP 48 h” value stood at 500 µM (≈ 247 µg/mL).
Consider `O=C(O)c1ccc(N=Cc2cc(Cl)cc(Cl)c2O)cc1` [1n, 4-[(3,5-Dichloro-2-hydroxybenzylidene)amino]benzoic acid], for which the MIC in data set [1] (72 h, read-out: MIC TI 72 h) is 250 µM (≈ 77.5 µg/mL); in data set [1] (120 h, read-out: MIC TI 120 h) it was 250 µM (≈ 77.5 µg/mL); in data set [2] (setting [7]) it was 500 µM (≈ 155 µg/mL); in data set [2] (setting [8]) it was 500 µM (≈ 155 µg/mL); in the data set with eight fungal strains, at least 125 µM; in data set [4] (setting [9]), 125 µM (≈ 38.8 µg/mL). Further, the MIC in data set [4] (setting [10]) was found to be 125 µM (≈ 38.8 µg/mL); in data set [5] (setting [11]), 250 µM (≈ 77.5 µg/mL); in data set [5] (setting [12]), 250 µM (≈ 77.5 µg/mL). The “MIC KP 24 h” value in data set [3] was over 500 µM. For the same molecule, the “MIC KP 48 h” value in data set [3] was over 500 µM.
`O=C(O)c1ccc(N=Cc2cccc(Cl)c2O)cc1` [1m, 4-[(3-Chloro-2-hydroxybenzylidene)amino]benzoic acid]: the MIC in data set [1] (72 h, read-out: MIC TI 72 h) was 125 µM (≈ 34.5 µg/mL); in data set [1] (120 h, read-out: MIC TI 120 h) it was 125 µM (≈ 34.5 µg/mL); in data set [2] (setting [7]) it was 500 µM (≈ 138 µg/mL); in data set [2] (setting [8]), 500 µM (≈ 138 µg/mL); in the data set with eight fungal strains it was at least 31.2 µM; in data set [4] (setting [9]) it was 31.2 µM (≈ 8.62 µg/mL). Besides, the MIC in data set [4] (setting [10]) is 31.2 µM (≈ 8.62 µg/mL); in data set [5] (setting [11]) it was 500 µM (≈ 138 µg/mL); in data set [5] (setting [12]) it was 500 µM (≈ 138 µg/mL); in data set [5] (setting [13]) it was at least 250 µM. The “MIC KP 24 h” value in data set [3] is given as over 500 µM. In addition, the “MIC KP 48 h” value in data set [3] is given as over 500 µM.
With `COc1ccc(O)c(C=Nc2ccc(C(=O)O)cc2)c1` [1h, 4-[(2-Hydroxy-5-methoxybenzylidene)amino]benzoic acid], the MIC in data set [1] (72 h, read-out: MIC TI 72 h) is over 500 µM; in data set [1] (120 h, read-out: MIC TI 120 h) it was over 500 µM; in data set [2] (setting [7]), 250 µM (≈ 67.8 µg/mL); in data set [2] (setting [8]), 500 µM (≈ 136 µg/mL); in the data set on eight fungal strains, at least 250 µM; in data set [4] (setting [9]) it was 250 µM (≈ 67.8 µg/mL). Besides, the MIC in data set [4] (setting [10]) was 250 µM (≈ 67.8 µg/mL); in data set [5] (setting [11]) it was 500 µM (≈ 136 µg/mL); in data set [5] (setting [12]), 500 µM (≈ 136 µg/mL); in data set [5] (setting [13]), at least 250 µM. Moreover, in data set [3], the “MIC KP 24 h” value is reported as over 500 µM. In data set [3], the “MIC KP 48 h” value is listed as over 500 µM.
